pEC50, pIC50: −log10 of the molar value. Structures can show the parent of a compound that is named as a salt. Where two headings read alike, the source gives them in different places.
How the values were obtained:
[1] = tested on: SARS-CoV-2; settings: cited from earlier work; for pEC50: read-out: SARS-CoV-2 EC50
[2] = tested on: SARS-CoV-2 in Vero cells; settings: for pIC50: * one replicate only
[3] = tested on: SARS-CoV-2 in Vero cells; assay: microbe, parasite or virus in culture; settings: Severe acute respiratory syndrome coronavirus 2, Vero
[4] = tested on: SARS-CoV-2 in Calu-3 cells
[5] = in vitro; settings: African green monkey, Selectivity Index (Vero cells)
[6] = female, LGV Golden Syrian, hamster, in vivo
[7] = tested on: SARS-CoV-2 in Calu-3 cells; assay: microbe, parasite or virus in culture; settings: Severe acute respiratory syndrome coronavirus 2, Calu-3, read-out: Calu-3 cells Average IC50
[8] = Population PK model in human (digitized literature data)
[9] = tested on: SARS-CoV-2; type: in vivo, Syrian hamster; settings: doses, frequency, duration as in Table 1
[10] = read-out: VERO cells Average IC50, Without Pgp pump inhibitor
[11] = With Pgp pump inhibitor, T: toxicity observed
[12] = Without Pgp pump inhibitor, T: toxicity observed
[13] = human, modelled from digitized data, ref 68 (ambroxol), 71-73 (cepharanthine), 78 (fluvoxamine), 80 (molnupiravir)
[14] = read-out: VERO cells Average IC50, With Pgp pump inhibitor, 2 μM CP-100356
[15] = read-out: VERO cells Average IC50, Without Pgp pump inhibitor, * one replicate only
[16] = read-out: VERO cells Average IC50, With Pgp pump inhibitor, 2 μM CP-100356, * one replicate only

With `CC(C)c1nc(CN(C)C(=O)N[C@H](C(=O)N[C@@H](Cc2ccccc2)C[C@H](O)[C@H](Cc2ccccc2)NC(=O)OCc2cncs2)C(C)C)cs1` [Ritonavir, ritonavir] as the molecule, how does the pEC50 ([1]; host cell Vero E6, ref 31) read?
Its pEC50 is under 4.00.

And the pEC50 ([1]; host cell Vero E6, ref 32)?
The pEC50 was under 4.30.

What about the pEC50 ([1]; host cell VeroE6/TMPRSS2) of the same molecule?
The pEC50 was 5.07.

Which results are given for `COc1cc2c(c(OC)c1OC)-c1ccc(OC)c(=O)cc1[C@@H](NC(C)=O)CC2` [Colchicine, colchicine]?
Activity In Vitro; Potency EC50 or IC50 < 10 µM; Vero Cells [2]: Yes (Potency EC50 or IC50 < 10 µM); pIC50 ([3]; read-out: VERO cells Average IC50, With Pgp pump inhibitor): 5.43; pIC50 [3, 10]: 5.08; Activity In Vitro; Potency EC50 or IC50 < 10 µM; Calu-3 Cells [4]: Yes (Potency EC50 or IC50 < 10 µM)

With `CN(Cc1cc(Br)cc(Br)c1N)C1CCCCC1` [Bromhexine, bromhexine] as the molecule, how does the pEC50 ([1]; host cell Vero E6, ref 47) read?
The pEC50 was 4.66.

With `CC(C)C(=O)OC[C@H]1O[C@@H](n2ccc(NO)nc2=O)[C@H](O)[C@@H]1O` [Molnupiravir, molnupiravir] as the molecule, how does the pEC50 ([1]; host cell Calu-3) read?
The pEC50 was 7.00.

What about the selectivity ratio [5, 11] of the same molecule?
Its selectivity ratio is over 19.4.

And the selectivity ratio [5, 12]?
Its selectivity ratio is over 1.9.

And the “CL/F, elimination clearance, population estimate (%RSE)” value [6]?
The value was 1340 (7.6) mL/h.

And the “Dose effect on KA (exp)” value [6]?
The value was -0.00247 (23.7).

What about the “KA, absorption rate constant, population estimate (%RSE)” value [6] of the same molecule?
The value was 1.45 (7.5) h-1.

And the “Q/F (Q1/F), inter-compartment clearance, population estimate (%RSE)” value [6]?
Its value is 15.8 (23.1) mL/h.

What about the “VC/F, central volume of distribution, population estimate (%RSE)” value [6] of the same molecule?
The value was 172 (21.6) mL.

What about the “VP/F, peripheral volume of distribution, population estimate (%RSE)” value [6] of the same molecule?
The value was 75.3 (23.0) mL.

And the pIC50 [7]?
The pIC50 was 4.56.

And the “Dose effect on MTT (power)” value ([8]; covariate, human model)?
The value was 0.127 (10.8%).

What about the “CL/F, population estimate (%RSE)” value [8, 13] of the same molecule?
The value was 80.9 (3.9%) L/h.

What about the “VC/F, population estimate (%RSE)” value [8, 13] of the same molecule?
Its value is 128 (5.7%) L.

What about the “MTT, population estimate (%RSE)” value ([8]; human, modelled from digitized data, ref 68 (ambroxol), 78 (fluvoxamine), 80 (molnupiravir)) of the same molecule?
The value was 1.0 (3.3%) h.

And the “Activity in SARS-CoV-2 Hamster Model” value [9]?
The value was “Yes”.

What about the “Activity in SARS-CoV-2 Hamster Model” value ([9]; listed as molnupiravir) of the same molecule?
Its value is “demonstrated in vivo efficacy”.

And the “Activity In Vitro; Potency EC50 or IC50 < 10 µM; Vero Cells” value (from here on “Activity In Vitro … Vero Cells”) ([2]; in the presence of a P-glycoprotein inhibitor (^Pgp))?
The value was “Yes ^Pgp (Potency EC50 or IC50 < 10 µM)”.

What about the pIC50 [2, 14] of the same molecule?
The pIC50 was 5.59.

And the pIC50 ([2]; read-out: VERO cells Average IC50, With Pgp pump inhibitor, 2 μM CP-100356, listed as molnupiravir)?
The pIC50 was over 5.00.

What about the pIC50 [3, 15] of the same molecule?
Its pIC50 is 4.59.

And the “Activity In Vitro; Potency EC50 or IC50 < 10 µM; Calu-3 Cells” value (shortened to “Activity In Vitro … Calu-3 Cells”) [4]?
Its value is “Yes (Potency EC50 or IC50 < 10 µM)”.

Which selectivity ratio ([5]; With Pgp pump inhibitor) does the source give for `OC(c1cc(C(F)(F)F)nc2c(C(F)(F)F)cccc12)C1CCCCN1` (stereo not drawn) [Mefloquine, mefloquine] here?
The selectivity ratio was 6.2.

And the selectivity ratio ([5]; Without Pgp pump inhibitor)?
Its selectivity ratio is 3.6.

And the pIC50 [7]?
The pIC50 was 4.88.

And the “Activity In Vitro … Vero Cells” value [2]?
The value was “Yes (Potency EC50 or IC50 < 10 µM)”.

And the pIC50 [3, 16]?
Its pIC50 is 5.55.

And the pIC50 [3, 15]?
Its pIC50 is 5.24.

And the “Activity In Vitro … Calu-3 Cells” value [4]?
Its value is “No (Potency EC50 or IC50 < 10 µM)”.

For `CCNCc1cc(Nc2ccnc3cc(Cl)ccc23)ccc1O` [N-desethylamodiaquine], which “CL/F, elimination clearance, population estimate (%RSE)” value [6] is on record?
The value was 804 (9.48%) mL/h.

What about the “Q/F (Q1/F), inter-compartment clearance, population estimate (%RSE)” value [6] of the same molecule?
Its value is 229 (27.6%) mL/h.

What about the “VC/F, central volume of distribution, population estimate (%RSE)” value [6] of the same molecule?
Its value is 1890 (42.2%) mL.

What about the “VP/F, peripheral volume of distribution, population estimate (%RSE)” value [6] of the same molecule?
Its value is 3050 (77.1%) mL.

Which EC90 ([1]; host cell HAE, AT-511, free base of AT-527 used) does the source give for bemnifosbuvir here?
The EC90 was 0.47 µM.

And the “Activity in SARS-CoV-2 Hamster Model” value [9]?
Its value is “No ^d”.

What about the “Activity in SARS-CoV-2 Hamster Model” value ([9]; listed as bemnifosbuvir (AT-527)) of the same molecule?
Its value is “no activity”.

What about the “Activity In Vitro … Vero Cells” value [2] of the same molecule?
Its value is “No (Potency EC50 or IC50 < 10 µM)”.

And the pIC50 [2, 14]?
The pIC50 was under 4.60.

And the pIC50 [2, 10]?
The pIC50 was under 4.60.

And the “Activity In Vitro … Calu-3 Cells” value [4]?
The value was “No (Potency EC50 or IC50 < 10 µM)”.

What about the pIC50 ([4]; read-out: Calu-3 cells Average IC50, * one replicate only) of the same molecule?
Its pIC50 is under 4.30.

With `CN(C)C(=O)COC(=O)Cc1ccc(OC(=O)c2ccc(NC(=N)N)cc2)cc1` [Camostat mesylate, camostat mesylate] as the molecule, how does the pEC50 ([1]; host cell Calu-3) read?
The pEC50 was 7.08.

And the pIC50 [7]?
Its pIC50 is 5.52.

What about the “Activity in SARS-CoV-2 Hamster Model” value [9] of the same molecule?
The value was “No”.

And the “Activity In Vitro … Vero Cells” value [2]?
Its value is “No (Potency EC50 or IC50 < 10 µM)”.

What about the pIC50 [3, 16] of the same molecule?
The pIC50 was under 4.30.

What about the pIC50 [3, 15] of the same molecule?
The pIC50 was under 4.30.

And the “Activity In Vitro … Calu-3 Cells” value [4]?
Its value is “Yes (Potency EC50 or IC50 < 10 µM)”.

For `O=C(Nc1ncc([N+](=O)[O-])s1)c1ccccc1O` [Tizoxanide, tizoxanide], which selectivity ratio [5, 11] is on record?
The selectivity ratio was over 21.7.

What about the selectivity ratio [5, 12] of the same molecule?
The selectivity ratio was over 7.

What about the pIC50 [7] of the same molecule?
Its pIC50 is 4.84.

What about the pIC50 [3, 16] of the same molecule?
The pIC50 was 5.64.

And the pIC50 [3, 15]?
Its pIC50 is 5.14.

From PMC9460261, “Need for a Standardized Translational Drug Development Platform: Lessons Learned from the Repurposing of Drugs for COVID-19” (Microorganisms, 2022)
